Tests used:
Conditions in all cases: incubation time: 72 h
Hs578T [1] = test: normalised viability (% of control), CellTiter-Blue; higher = more viable cells (100 = DMSO, 0 = benzethonium chloride kill control)
Procedure: (§1)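 DSRT, CellTiter-Blue viability, 72 h incubation. Signal is normalised to DMSO and benzethonium chloride controls. Value is the normalised response at dose 1.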

BT-474 [2] = test: as above
Procedure: as §1

DU-4475 [3] = test: as above
Procedure: as §1

MDA-MB-436 [4] = test: as above
Procedure: as §1

SK-BR-3 [5] = test: as above
Procedure: as §1

HCC1599 [6] = test: as above
Procedure: as §1

MDA-MB-453 [7] = test: as above
Procedure: as §1

MDA-MB-231 [8] = test: as above
Procedure: as §1

MFM-223 [9] = test: as above
Procedure: as §1

BT-549 [10] = test: as above
Procedure: as §1

CAL-85-1 [11] = test: as above
Procedure: as §1

CAL-148 [12] = test: as above
Procedure: as §1

HCC1143 [13] = test: as above
Procedure: as §1

HDQ-P1 [14] = test: as above
Procedure: as §1

HCC1937 [15] = test: as above
Procedure: as §1

CAL-120 [16] = test: as above
Procedure: as §1

CAL-51 [17] = test: as above
Procedure: as §1

MDA-MB-468 [18] = test: as above
Procedure: as §1

Hs578T [19] = test: normalised response (% of control), CellTiter-Glo; higher = more viable cells (100 = DMSO, 0 = benzethonium chloride kill control)
Outline: (§2)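 Every value is a normalised signal taken at one concentration of a dilution series. Compound was placed in 384-well plates at 5 concentrations in 10-fold steps over a compound-specific 10,000-fold range, and 20 µl of breast cancer cell suspension was seeded onto it. After 72 h, CellTox Green fluorescence (485/520 nm) was measured first and CellTiter-Glo luminescence second, following 10 min at room temperature. Each plate was scaled to 0.1 % DMSO (100) and a positive kill control (0).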

BT-474 [20] = test: as above
Outline: as §2

DU-4475 [21] = test: as above
Outline: as §2

MDA-MB-436 [22] = test: as above
Outline: as §2

SK-BR-3 [23] = test: as above
Outline: as §2

MCF-10A = test: as above
Outline: as §2

HCC1599 [24] = test: as above
Outline: as §2

MDA-MB-453 [25] = test: as above
Outline: as §2

MDA-MB-231 [26] = test: as above
Outline: as §2

MFM-223 [27] = test: as above
Outline: as §2

BT-549 [28] = test: as above
Outline: as §2

CAL-85-1 [29] = test: as above
Outline: as §2

CAL-148 [30] = test: as above
Outline: as §2

HCC1143 [31] = test: as above
Outline: as §2

HDQ-P1 [32] = test: as above
Outline: as §2

HCC1937 [33] = test: as above
Outline: as §2

CAL-120 [34] = test: as above
Outline: as §2

CAL-51 [35] = test: as above
Outline: as §2

MDA-MB-468 [36] = test: as above
Outline: as §2

Structure (SMILES)	normalised viability (Hs578T [1])	normalised viability (BT-474 [2])	normalised viability (DU-4475 [3])	normalised viability (MDA-MB-436 [4])	normalised viability (SK-BR-3 [5])	normalised viability (HCC1599 [6])	normalised viability (MDA-MB-453 [7])	normalised viability (MDA-MB-231 [8])	normalised viability (MFM-223 [9])	normalised viability (BT-549 [10])	normalised viability (CAL-85-1 [11])	normalised viability (CAL-148 [12])	normalised viability (HCC1143 [13])	normalised viability (HDQ-P1 [14])	normalised viability (HCC1937 [15])	normalised viability (CAL-120 [16])	normalised viability (CAL-51 [17])	normalised viability (MDA-MB-468 [18])	normalised response (Hs578T [19])	normalised response (BT-474 [20])	normalised response (DU-4475 [21])	normalised response (MDA-MB-436 [22])	normalised response (SK-BR-3 [23])	normalised response (MCF-10A)	normalised response (HCC1599 [24])	normalised response (MDA-MB-453 [25])	normalised response (MDA-MB-231 [26])	normalised response (MFM-223 [27])	normalised response (BT-549 [28])	normalised response (CAL-85-1 [29])	normalised response (CAL-148 [30])	normalised response (HCC1143 [31])	normalised response (HDQ-P1 [32])	normalised response (HCC1937 [33])	normalised response (CAL-120 [34])	normalised response (CAL-51 [35])	normalised response (MDA-MB-468 [36])
Cc1c(N)nc([C@H](CC(N)=O)NC[C@H](N)C(N)=O)nc1C(=O)N[C@H](C(=O)N[C@H](C)[C@@H](O)[C@H](C)C(=O)N[C@H](C(=O)NCCc1nc(-c2nc(C(=O)NCCC[S+](C)C)cs2)cs1)[C@@H](C)O)[C@@H](OC1OC(CO)C(O)C(O)C1OC1OC(CO)C(O)C(OC(N)=O)C1O)c1cnc[nH]1 (some centres undefined) [Bleomycin] (1 nM)	98.8%	84.4%	116%	121%	83.4%	126%	91.7%	86.7%	102%	97.3%	97.8%	112%	92.5%	91.5%	92.7%	89.3%	94.5%	85.4%	97.3%	96.3%	97.1%	102%	103%	93.2%	90.8%	105%	92.3%	96.5%	104%	97.4%	93.2%	96.4%	96.4%	98%	99%	113%	95.5%
Cc1cc2c(F)c(Oc3ncnn4cc(OC[C@@H](C)O)c(C)c34)ccc2[nH]1 [Brivanib] (0.1 nM)	112%	93.5%	109%	114%	98%	96%	104%	99.5%	96.5%	109%	86.7%	107%	101%	84.9%	82.1%	78.7%	93.4%	104%	104%	104%	104%	101%	111%	108%	111%	104%	107%	105%	100%	101%	106%	104%	97.9%	101%	101%	114%	113%
CC(C)C[C@H](NC(=O)[C@H](CCc1ccccc1)NC(=O)CN1CCOCC1)C(=O)N[C@@H](Cc1ccccc1)C(=O)N[C@@H](CC(C)C)C(=O)[C@@]1(C)CO1 [Carfilzomib] (0.1 nM)	100%	116%	107%	101%	99.7%	100%	96.9%	132%	83.4%	105%	95.5%	99.9%	100%	95.6%	84.8%	89.8%	110%	100%	100%	108%	103%	105%	105%	106%	120%	108%	107%	104%	97.3%	105%	109%	104%	110%	105%	103%	124%	109%
Nc1nc(Cl)nc2c1ncn2[C@@H]1O[C@H](CO)[C@@H](O)[C@@H]1F [Clofarabine] (1 nM)	116%	89.5%	101%	100%	91%	101%	107%	90.3%	93%	93.7%	87%	91%	87.1%	118%	93.7%	90.4%	108%	111%	103%	101%	99%	97.4%	99.1%	107%	90%	106%	101%	101%	94.8%	97.4%	90.5%	96.7%	98.3%	98.1%	101%	79.9%	94.9%
CCN(CC)CCOc1ccc(C(=C(Cl)c2ccccc2)c2ccccc2)cc1 [Clomifene] (1 nM)	123%	95.6%	92.8%	111%	96.7%	79.7%	102%	104%	101%	116%	89%	105%	89.7%	125%	97.7%	90.2%	94.5%	103%	101%	106%	104%	111%	108%	95.8%	99.8%	106%	106%	99.6%	101%	104%	109%	105%	99.2%	96.9%	95.8%	102%	98.8%
C[C@@H]1C[C@H]2[C@@H]3CCC4=CC(=O)C=C[C@]4(C)[C@@]3(F)[C@@H](O)C[C@]2(C)[C@@]1(O)C(=O)CO [Dexamethasone] (1 nM)	93.5%	119%	96.6%	85.8%	111%	84%	94.3%	126%	91.6%	157%	107%	109%	91.8%	92.9%	82%	82.3%	95.6%	106%	107%	107%	100%	115%	95.6%	90%	100%	102%	112%	94.7%	102%	102%	89.2%	96.2%	104%	98.9%	94.3%	116%	94.6%
CC(C)C(=O)Nc1ccc([N+](=O)[O-])c(C(F)(F)F)c1 [Flutamide] (1 nM)	134%	96.8%	100%	94.7%	98.1%	119%	104%	90.2%	90.4%	86.2%	96.8%	114%	90.7%	118%	65.1%	93.6%	109%	96.1%	98.2%	98.5%	97%	103%	105%	103%	97.4%	113%	99%	98.4%	98.5%	96.7%	96.8%	93.2%	101%	94.7%	103%	113%	96%

From the supplement of paper PMC4862054
